Data set [1] has as its target Non-receptor tyrosine-protein kinase TYK2 (Homo sapiens, UniProt P29597). Nature of the data set: Inhibition of His-tagged TYK2 (unknown origin) using fluoresceinated peptide as substrate after 3 hrs by caliper assay.
For the next data set, the system named is Blood. Nature of the data set: Inhibition of IL2-induced IFNgamma production in human whole blood. It is filed as functional.
The target of data set [2] is T1, Tyrosine-protein kinase JAK2 (Homo sapiens, UniProt O60674). Put plainly: Inhibition of GST-tagged JAK2 (unknown origin) using fluoresceinated peptide as substrate after 3 hrs by caliper assay.
T1 sequence (O60674 whole entry): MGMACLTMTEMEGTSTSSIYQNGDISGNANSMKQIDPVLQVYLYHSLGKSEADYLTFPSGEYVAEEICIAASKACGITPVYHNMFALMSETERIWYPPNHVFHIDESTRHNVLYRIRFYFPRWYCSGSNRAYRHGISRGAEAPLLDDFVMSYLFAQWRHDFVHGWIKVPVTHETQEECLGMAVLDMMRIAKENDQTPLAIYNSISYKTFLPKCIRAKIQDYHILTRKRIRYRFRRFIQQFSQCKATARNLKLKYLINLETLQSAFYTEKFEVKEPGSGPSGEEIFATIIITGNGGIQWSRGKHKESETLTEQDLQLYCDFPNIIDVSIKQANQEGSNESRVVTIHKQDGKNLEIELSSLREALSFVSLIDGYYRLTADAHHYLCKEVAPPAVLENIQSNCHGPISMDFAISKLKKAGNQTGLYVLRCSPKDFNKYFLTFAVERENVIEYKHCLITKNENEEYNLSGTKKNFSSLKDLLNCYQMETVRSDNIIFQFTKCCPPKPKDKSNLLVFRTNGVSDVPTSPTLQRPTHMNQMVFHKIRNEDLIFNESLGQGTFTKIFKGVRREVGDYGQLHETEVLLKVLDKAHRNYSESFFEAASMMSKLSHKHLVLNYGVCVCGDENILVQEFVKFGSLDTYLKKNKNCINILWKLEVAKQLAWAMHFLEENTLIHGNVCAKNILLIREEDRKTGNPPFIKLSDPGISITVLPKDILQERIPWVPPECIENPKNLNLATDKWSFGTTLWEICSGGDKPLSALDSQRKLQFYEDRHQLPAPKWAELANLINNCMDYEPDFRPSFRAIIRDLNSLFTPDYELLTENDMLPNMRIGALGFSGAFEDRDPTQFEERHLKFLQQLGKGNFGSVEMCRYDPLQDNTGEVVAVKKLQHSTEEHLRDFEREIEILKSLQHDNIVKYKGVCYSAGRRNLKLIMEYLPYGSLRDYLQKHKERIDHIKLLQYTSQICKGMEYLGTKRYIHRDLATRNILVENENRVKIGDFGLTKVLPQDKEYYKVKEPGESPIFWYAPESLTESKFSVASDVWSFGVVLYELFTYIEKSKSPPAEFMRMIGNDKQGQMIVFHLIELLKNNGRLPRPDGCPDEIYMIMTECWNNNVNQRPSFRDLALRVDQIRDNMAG
Data set [3] addresses T2, Tyrosine-protein kinase JAK3 (Homo sapiens, UniProt P52333).
T2 sequence (P52333 whole entry): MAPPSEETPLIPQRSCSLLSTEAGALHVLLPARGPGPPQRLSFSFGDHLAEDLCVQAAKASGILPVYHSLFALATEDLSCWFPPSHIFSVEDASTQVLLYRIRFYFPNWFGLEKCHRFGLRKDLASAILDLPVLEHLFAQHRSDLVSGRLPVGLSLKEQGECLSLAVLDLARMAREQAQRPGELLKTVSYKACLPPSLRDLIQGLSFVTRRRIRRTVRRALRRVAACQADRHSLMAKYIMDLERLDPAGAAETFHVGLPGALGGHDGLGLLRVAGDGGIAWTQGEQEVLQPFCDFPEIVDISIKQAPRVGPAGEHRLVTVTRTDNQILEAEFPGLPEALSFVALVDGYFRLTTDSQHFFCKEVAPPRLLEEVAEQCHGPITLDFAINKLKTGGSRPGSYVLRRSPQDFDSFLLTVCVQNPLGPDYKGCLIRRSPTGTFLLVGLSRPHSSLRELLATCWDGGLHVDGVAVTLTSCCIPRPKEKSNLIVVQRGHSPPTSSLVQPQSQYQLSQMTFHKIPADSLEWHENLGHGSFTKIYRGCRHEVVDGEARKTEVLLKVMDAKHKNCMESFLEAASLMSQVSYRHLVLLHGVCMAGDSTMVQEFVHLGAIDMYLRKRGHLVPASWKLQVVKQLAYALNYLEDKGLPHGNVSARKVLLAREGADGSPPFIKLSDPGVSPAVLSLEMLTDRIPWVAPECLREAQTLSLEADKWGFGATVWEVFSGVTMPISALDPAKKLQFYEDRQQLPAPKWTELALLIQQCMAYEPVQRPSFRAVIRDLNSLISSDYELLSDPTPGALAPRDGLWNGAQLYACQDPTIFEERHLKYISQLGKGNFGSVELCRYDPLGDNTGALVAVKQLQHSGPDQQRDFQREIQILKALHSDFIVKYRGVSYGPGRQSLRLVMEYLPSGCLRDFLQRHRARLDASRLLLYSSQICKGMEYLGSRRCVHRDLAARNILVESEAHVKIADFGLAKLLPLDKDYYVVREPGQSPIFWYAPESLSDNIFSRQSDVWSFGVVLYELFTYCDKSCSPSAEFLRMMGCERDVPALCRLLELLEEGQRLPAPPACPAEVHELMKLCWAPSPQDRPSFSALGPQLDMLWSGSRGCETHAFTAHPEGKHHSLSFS
Nature of the data set: Inhibition of JAK3 (unknown origin) using CSKtide as substrate after 30 mins in presence of [gamma32P]ATP by top-count liquid scintillation counting method.

Data set [4] deals with Tyrosine-protein kinase JAK1 (Homo sapiens, UniProt P23458). Nature of the data set: Inhibition of GST-tagged JAK1 (unknown origin) using fluoresceinated peptide as substrate after 3 hrs by caliper assay.
Tyrosine-protein kinase JAK1, sequence (P23458 whole entry): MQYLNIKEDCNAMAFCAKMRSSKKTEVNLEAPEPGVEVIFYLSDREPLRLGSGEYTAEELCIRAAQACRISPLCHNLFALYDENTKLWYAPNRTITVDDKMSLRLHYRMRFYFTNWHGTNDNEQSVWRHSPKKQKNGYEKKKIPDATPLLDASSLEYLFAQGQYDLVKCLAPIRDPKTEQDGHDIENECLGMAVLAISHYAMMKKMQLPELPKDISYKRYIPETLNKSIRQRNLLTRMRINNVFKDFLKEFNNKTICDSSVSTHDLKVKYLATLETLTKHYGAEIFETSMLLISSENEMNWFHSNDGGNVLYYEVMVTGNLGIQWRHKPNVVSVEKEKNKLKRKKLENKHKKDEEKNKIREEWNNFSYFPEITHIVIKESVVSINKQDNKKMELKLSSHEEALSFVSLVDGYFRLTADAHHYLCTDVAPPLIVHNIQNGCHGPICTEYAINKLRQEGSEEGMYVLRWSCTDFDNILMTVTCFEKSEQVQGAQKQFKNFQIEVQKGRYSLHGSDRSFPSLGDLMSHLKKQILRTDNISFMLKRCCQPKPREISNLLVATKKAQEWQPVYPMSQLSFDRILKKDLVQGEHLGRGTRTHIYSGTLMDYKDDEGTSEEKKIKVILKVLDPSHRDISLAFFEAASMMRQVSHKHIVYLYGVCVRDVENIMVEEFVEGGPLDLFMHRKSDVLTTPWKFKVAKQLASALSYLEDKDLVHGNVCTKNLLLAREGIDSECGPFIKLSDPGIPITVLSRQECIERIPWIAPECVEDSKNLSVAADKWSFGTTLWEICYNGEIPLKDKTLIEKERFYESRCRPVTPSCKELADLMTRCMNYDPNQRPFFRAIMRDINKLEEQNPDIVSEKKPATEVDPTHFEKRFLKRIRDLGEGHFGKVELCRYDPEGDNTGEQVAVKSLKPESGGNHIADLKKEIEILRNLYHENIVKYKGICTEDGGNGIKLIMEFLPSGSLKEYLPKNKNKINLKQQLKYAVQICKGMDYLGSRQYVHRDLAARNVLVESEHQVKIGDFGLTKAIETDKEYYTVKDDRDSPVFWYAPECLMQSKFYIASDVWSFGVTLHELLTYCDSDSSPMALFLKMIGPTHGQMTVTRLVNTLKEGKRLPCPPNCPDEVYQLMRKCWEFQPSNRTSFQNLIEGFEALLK
A further data set has as its system T-cell. Nature of the data set: Inhibition of IL-2 induced cell proliferation in human PBMC derived T cells pretreated for 60 mins followed by IL-2 addition measured after 3 days by [3H]thymidine incorporation assay. It is filed as functional, cell-based. (In general: Uptake of a labelled nucleoside into DNA is a usual measure of proliferation.)
The target in data set [5] is T3, Tyrosine-protein kinase JAK3 (Homo sapiens) (UniProt P52333).
T3 sequence (whole entry): T2 sequence (P52333 whole entry)
Nature of the data set: Inhibition of JAK3 (unknown origin) using CSKtide as substrate pretreated measured after 30 mins in presence of [gamma32P]ATP by top-count liquid scintillation counting method.

Data set [6] has as its target T4, Tyrosine-protein kinase BTK (Homo sapiens, UniProt Q06187). Put plainly: Inhibition of full length human His-tagged BTK expressed in baculovirus expression system using GEEPLYWSFPAKKK-NH2 as substrate pretreated for 15 mins followed by ATP addition measured after 10 mins by topcount scintillation counting analysis.
For the next data set, the target named is JAK1/TYK2 (Homo sapiens, UniProt P23458+P29597). Put plainly: Inhibition of JAK1/TYK2 in human PBMC derived T cell assessed as reduction in IFNa2a-induced STAT3 phosphorylation after 30 mins by ELISA. It is filed as protein-complex assay.
JAK1/TYK2, sequence (P23458 whole entry): as above
JAK1/TYK2, sequence (P29597 whole entry): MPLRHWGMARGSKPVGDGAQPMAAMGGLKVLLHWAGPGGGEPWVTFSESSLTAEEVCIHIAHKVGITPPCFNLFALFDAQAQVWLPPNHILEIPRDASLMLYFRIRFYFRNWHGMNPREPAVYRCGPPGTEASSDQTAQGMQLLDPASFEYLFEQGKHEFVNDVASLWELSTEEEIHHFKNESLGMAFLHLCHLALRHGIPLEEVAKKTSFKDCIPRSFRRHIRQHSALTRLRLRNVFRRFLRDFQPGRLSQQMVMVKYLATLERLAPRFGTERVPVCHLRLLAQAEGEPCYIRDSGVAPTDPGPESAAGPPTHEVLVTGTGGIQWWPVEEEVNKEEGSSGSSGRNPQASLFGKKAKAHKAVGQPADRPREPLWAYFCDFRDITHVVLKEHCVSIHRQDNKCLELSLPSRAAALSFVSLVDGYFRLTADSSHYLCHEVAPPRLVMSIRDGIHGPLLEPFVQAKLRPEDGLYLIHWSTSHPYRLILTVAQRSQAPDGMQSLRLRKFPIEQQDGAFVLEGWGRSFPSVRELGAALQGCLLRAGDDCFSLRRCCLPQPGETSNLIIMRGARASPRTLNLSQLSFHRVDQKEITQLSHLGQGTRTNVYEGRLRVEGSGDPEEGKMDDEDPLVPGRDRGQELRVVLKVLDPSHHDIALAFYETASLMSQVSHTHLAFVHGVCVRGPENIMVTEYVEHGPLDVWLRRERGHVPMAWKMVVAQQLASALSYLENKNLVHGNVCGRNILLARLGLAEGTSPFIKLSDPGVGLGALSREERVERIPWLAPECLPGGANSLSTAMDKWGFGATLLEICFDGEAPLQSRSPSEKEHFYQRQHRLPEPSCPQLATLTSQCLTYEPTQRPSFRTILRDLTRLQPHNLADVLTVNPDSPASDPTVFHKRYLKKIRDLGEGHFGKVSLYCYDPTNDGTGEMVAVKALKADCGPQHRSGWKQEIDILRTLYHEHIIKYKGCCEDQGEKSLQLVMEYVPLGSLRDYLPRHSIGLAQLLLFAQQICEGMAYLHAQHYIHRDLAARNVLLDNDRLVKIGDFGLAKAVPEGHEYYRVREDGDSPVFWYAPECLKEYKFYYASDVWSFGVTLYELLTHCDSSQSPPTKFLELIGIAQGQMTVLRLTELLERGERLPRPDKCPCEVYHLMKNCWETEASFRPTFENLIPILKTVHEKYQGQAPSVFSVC
Data set [7] has as its target T4, Tyrosine-protein kinase BTK. Nature of the data set: Inhibition of full length human His-tagged BTK expressed in baculovirus expression system using GEEPLYWSFPAKKK-NH2 as substrate pretreated for 120 mins followed by ATP addition measured after 10 mins by topcount scintillation counting analysis.
The target in data set [8] is Macrophage colony-stimulating factor 1 receptor (Homo sapiens, UniProt P07333). Put plainly: Inhibition of FMS (unknown origin) by caliper assay.
In data set [9] the target is T4, Tyrosine-protein kinase BTK. Nature of the data set: Inhibition of full length human His-tagged BTK expressed in baculovirus expression system using GEEPLYWSFPAKKK-NH2 as substrate pretreated for 45 mins followed by ATP addition measured after 10 mins by topcount scintillation counting analysis.
For data set [10] the target is unchanged. Nature of the data set: Inhibition of full length human His-tagged BTK expressed in baculovirus expression system using GEEPLYWSFPAKKK-NH2 as substrate measured after 10 mins in presence of ATP by topcount scintillation counting analysis.
For data set [11], the target named is Epidermal growth factor receptor (Homo sapiens, UniProt P00533). Put plainly: Inhibition of EGFR (unknown origin) by caliper assay.
The target of data set [12] is T1, Tyrosine-protein kinase JAK2. Put plainly: Inhibition of JAK2 in human TF1 cells assessed as reduction in EPO-induced STAT5A phosphorylation pretreated for 30 mins followed by EPO addition measured after 10 mins by ELISA. It is filed as cell-based. (In general: In an ELISA, binding on a coated surface is turned into a signal by an enzyme label.)
In data set [13] the target is T3, Tyrosine-protein kinase JAK3 (Homo sapiens).
Description: Time-dependent inhibition of JAK3 (unknown origin) using CSKtide as substrate in presence of [gamma32P]ATP by top-count liquid scintillation counting method
For data set [14], the target named is T4, Tyrosine-protein kinase BTK. Nature of the data set: Time-dependent inhibition of full length human His-tagged BTK expressed in baculovirus expression system using GEEPLYWSFPAKKK-NH2 as substrate by topcount scintillation counting analysis.
Data set [15] has the same target. Put plainly: Inhibition of full length human His-tagged BTK expressed in baculovirus expression system using GEEPLYWSFPAKKK-NH2 as substrate measured immediately in presence of ATP by topcount scintillation counting analysis.
In the next data set the target is JAK3/JAK1 (Homo sapiens, UniProt P23458+P52333). Nature of the data set: Inhibition of JAK1/JAK3 in human PBMC derived T cell assessed as reduction in IL2-induced STAT3 phosphorylation after 30 mins by ELISA. It is filed as protein-complex assay.
JAK3/JAK1, sequence (P23458 whole entry, one chain of several): as the sequence (P23458 whole entry) above
Data set [16] in a line: Bioavailability in mouse. It is filed as ADME, organism-based. As to conditions: in vivo.
Data set [17] has as its target T4, Tyrosine-protein kinase BTK. Put plainly: Inhibition of BTK in goat anti-human IgM F(ab')2-stimulated human whole blood assessed as suppression of BCR-induced CD69 expression on B cells after 18 hrs by FACS analysis. On the technique in general: In flow cytometry, cells or beads pass a laser one at a time.

Active and inactive are the calls of the source. No cut-off for these calls is given here.

Non-receptor tyrosine-protein kinase TYK2, sequence (P29597 whole entry): as the sequence (P29597 whole entry) above
T4 sequence (Q06187 whole entry): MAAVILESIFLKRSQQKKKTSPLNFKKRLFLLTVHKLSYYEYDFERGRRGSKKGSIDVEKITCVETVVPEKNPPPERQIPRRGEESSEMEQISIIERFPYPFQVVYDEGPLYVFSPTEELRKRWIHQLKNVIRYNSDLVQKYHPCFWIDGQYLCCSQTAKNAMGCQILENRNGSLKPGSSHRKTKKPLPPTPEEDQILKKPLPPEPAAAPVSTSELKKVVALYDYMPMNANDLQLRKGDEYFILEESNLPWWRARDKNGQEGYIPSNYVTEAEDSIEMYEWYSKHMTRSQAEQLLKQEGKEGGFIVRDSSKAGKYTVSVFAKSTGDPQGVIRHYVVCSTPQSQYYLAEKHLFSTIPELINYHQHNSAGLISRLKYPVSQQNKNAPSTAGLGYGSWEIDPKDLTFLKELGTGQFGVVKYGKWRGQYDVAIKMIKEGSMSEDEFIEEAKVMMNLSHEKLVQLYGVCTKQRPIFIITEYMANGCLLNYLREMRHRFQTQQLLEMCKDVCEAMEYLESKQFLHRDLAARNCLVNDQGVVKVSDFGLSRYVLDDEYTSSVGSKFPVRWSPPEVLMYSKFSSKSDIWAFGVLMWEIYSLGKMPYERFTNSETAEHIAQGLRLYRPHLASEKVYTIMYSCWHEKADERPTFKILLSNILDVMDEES

By IC50 is commonly meant the concentration at which inhibition is half-maximal. For the molecule `C=CC(=O)Nc1cccc(CNc2c(C(N)=O)cnn3cccc23)c1`, the IC50 in [1] was above 2 µM; in the data set with Blood, 2.3 µM; in data set [2], above 2 µM; in data set [3] it was 0.0013 µM; in data set [4], 1.7 µM; with T-cell it was 0.055 µM.

For `C=CS(=O)(=O)Nc1cccc(CNc2c(C(N)=O)cnn3cccc23)c1`, the IC50 in data set [1] is above 2 µM; in data set [2], 1.27 µM; in data set [3], 0.0035 µM; in data set [4], 0.974 µM; in the data set on T-cell it was 6.7 µM.

For the molecule `NC(=O)c1cnc(Nc2ccccc2)cc1NCc1ccccc1`, the IC50 in data set [1] is 0.774 µM; in [2], 0.203 µM; in [4], 0.219 µM.

Regarding `NC(=O)c1cnn2cc(-c3ccccc3)cc2c1NCc1ccccc1`, the IC50 in data set [1] came to 0.118 µM; in data set [2], 0.438 µM; in data set [3] it was 0.014 µM; in data set [4], 0.214 µM.

For `N#CCC(=O)Nc1cccc(CNc2c(C(N)=O)cnn3cccc23)c1`, the half-maximal inhibitory concentration (IC50) turned out to be 2 µM in [1]; 0.658 µM in data set [2]; 0.035 µM in data set [3]; 0.264 µM in data set [4]; 8.45 µM in the data set with T-cell.

For the molecule `CCC(=O)Nc1cccc(CNc2cc(Nc3ccccc3)ncc2C(N)=O)c1`, in data set [3], the IC50 is 0.1 µM. Further, in [5], the inhibition result is “Active”.

With `C/C=C/C(=O)Nc1cccc(CNc2c(C(N)=O)cnn3cccc23)c1`, the IC50 was above 2 µM in [1]; above 2 µM in data set [2]; 0.175 µM in data set [3]; 1.42 µM in [4]; 26.6 µM in the data set with T-cell.

Consider `NC(=O)c1cnn2cccc2c1NCc1cccc(NC(=O)Cn2sc3ccccc3c2=O)c1`, for which the IC50 in data set [1] turned out to be 0.24 µM; in data set [2] it was 0.745 µM; in [3], 0.03 µM; in data set [4] it was 0.196 µM; in the data set on T-cell, 5.48 µM.

Regarding `CN(C)/C=C(/C#N)C(=O)Nc1cccc(CNc2c(C(N)=O)cnn3cccc23)c1`, the IC50 in [1] was above 2 µM; in data set [2], above 2 µM; in [3] it was 0.942 µM; in data set [4], above 2 µM; with T-cell, 14.4 µM.

`NC(=O)c1cnn2cccc2c1NCc1cccc(NC(=O)COc2c(F)c(F)c(F)c(F)c2F)c1`: the IC50 is above 2 µM in data set [1]; above 2 µM in data set [2]; 0.743 µM in data set [3]; above 2 µM in data set [4]; 15.4 µM with T-cell.

Usually EC50 stands for the concentration giving half of the maximal effect. In general, bioavailability refers to the share of a dose that reaches the circulation, judged against a reference dose that is usually intravenous. High values mean good availability, low ones poor availability. As to `C=CC(=O)Nc1cccc(CNc2cc(Nc3ccccc3)ncc2C(N)=O)c1`, the concentration for a half-maximal effect (EC50) in data set [6] came to 6.56 µM; in [7], 1.58 µM; in [9], 2.89 µM; in data set [15] it was 19.8 µM. For the same molecule, the IC50 is 4.9 µM on JAK1/TYK2; 0.18 µM in data set [8]; above 2.5 µM in data set [10]; above 10 µM in [11]; 11 µM in [12]; above 5 µM in [1]. The IC50 in the data set on Blood was 0.49 µM; in [2] it was 1.3 µM; in [3], below 0.001 µM; in [4], 1.1 µM; at JAK3/JAK1, 0.051 µM; with T-cell it was 0.022 µM. For the same molecule, in data set [17], the IC50 is above 10 µM. In addition, the TDI entry in data set [13] and in [14] was “Active” throughout. Moreover, the bioavailability in data set [16] was below 30%.

(Values after ChEMBL document CHEMBL4043231, “Discovery of highly potent, selective, covalent inhibitors of JAK3” (Bioorg Med Chem Lett, 2017).)
